In patent publication US8686184B2, “Neprilysin inhibitors” (Theravance, Inc., priority 2011, dated 2014):

Molecular target: T1, human neprilysin (EC 3.4.24.11; NEP) (Homo sapiens, UniProt P08473)
T1 construct: purchased R&D Systems, Minneapolis, Minn; 1182-ZN
Assay: In vitro enzyme inhibition assay at human NEP (fluorogenic peptide substrate)
Type: biochemical
Conditions: recombinant human NEP; 37° C.; substrate Mca-D-Arg-Arg-Leu-Dap-(Dnp)-OH 10 μM; values given as ranges; read-out: pKi values at human NEP (converted)
Method: In vitro Assays for the Quantitation of Inhibitor Potencies at Human and Rat NEP, and Human ACE
The inhibitory activities of compounds at human and rat neprilysin (EC 3.4.24.11; NEP) and human angiotensin converting enzyme (ACE) were determined using in vitro assays as described below.
Recombinant human NEP and recombinant human ACE were obtained commercially (R&D Systems, Minneapolis, Minn., catalog numbers 1182-ZN and 929-ZN, respectively). The fluorogenic peptide substrate Mca-D-Arg-Arg-Leu-Dap-(Dnp)-OH (Medeiros et al. (1997) Braz. J. Med. Biol. Res. 30:1157-62; Anaspec, San Jose, Calif.) and Abz-Phe-Arg-Lys(Dnp)-Pro-OH (Araujo et al. (2000) Biochemistry 39:8519-8525; Bachem, Torrance, Calif.) were used in the NEP and ACE assays respectively.
The assays were performed in 384-well white opaque plates at 37° C. using the fluorogenic peptide substrates at a concentration of 10 μM in Assay Buffer (NEP: 50 mM HEPES, pH 7.5, 100 mM NaCl, 0.01% polyethylene glycol sorbitan monolaurate (Tween-20), 10 μM ZnSO4; ACE: 50 mM HEPES, pH 7.5, 100 mM NaCl, 0.01% Tween-20, 1 μM ZnSO4).
Test compounds were assayed over the range of concentrations from 10 μM to 20 pM. Test compounds were added to the enzymes and incubated for 30 minute at 37° C. prior to initiating the reaction by the addition of substrate. Reactions were terminated after 20 minutes of incubation at 37° C. by the addition of glacial acetic acid to a final concentration of 3.6% (v/v).
Plates were read on a fluorometer with excitation and emission wavelengths set to 320 nm and 405 nm, respectively Inhibition constants were obtained by nonlinear regression of the data using the equation (GraphPad Software, Inc., San Diego, Calif.): v=v0/[1+(I/K′)] where v is the reaction rate, v0 is the uninhibited reaction rate, I is the inhibitor concentration and K′ is the apparent inhibition constant.
Compounds of the invention were tested in this assay and found to have pKi values at human NEP as follows.

T1 sequence (P08473 52-750 limits assumed): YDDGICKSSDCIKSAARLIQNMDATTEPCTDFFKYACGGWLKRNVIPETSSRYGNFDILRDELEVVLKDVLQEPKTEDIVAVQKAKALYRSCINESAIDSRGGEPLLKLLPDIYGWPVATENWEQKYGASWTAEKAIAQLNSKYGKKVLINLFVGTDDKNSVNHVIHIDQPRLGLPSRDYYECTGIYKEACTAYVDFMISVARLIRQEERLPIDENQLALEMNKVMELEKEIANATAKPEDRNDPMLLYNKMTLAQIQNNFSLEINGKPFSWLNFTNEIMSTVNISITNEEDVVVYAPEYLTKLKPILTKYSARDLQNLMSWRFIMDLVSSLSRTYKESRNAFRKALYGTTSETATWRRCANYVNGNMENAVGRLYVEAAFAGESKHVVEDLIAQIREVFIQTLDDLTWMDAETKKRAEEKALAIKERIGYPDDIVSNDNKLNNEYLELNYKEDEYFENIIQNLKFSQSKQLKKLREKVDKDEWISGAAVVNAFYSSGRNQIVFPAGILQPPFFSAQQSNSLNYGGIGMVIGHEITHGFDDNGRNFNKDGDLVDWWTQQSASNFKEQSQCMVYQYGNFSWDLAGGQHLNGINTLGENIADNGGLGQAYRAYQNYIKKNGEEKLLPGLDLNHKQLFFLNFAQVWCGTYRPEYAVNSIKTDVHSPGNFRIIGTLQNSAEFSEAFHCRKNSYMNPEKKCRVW

| Ki | Compound |
| --- | --- |
| ≤ 1 nM | O=C(CCCc1cc(F)ccc1C(=O)O)N[C@H](Cc1ccccc1Cl)[C@@H](O)C(=O)O [Example 2-1, 2-{3-[(1R,2R)-2-Carboxy-1-(2-chlorobenzyl)-2-hydroxy-ethylcarbamoyl]-propyl}-4-fluoro-benzoic acid] |
| ≤ 1 nM | O=C(N[C@H](Cc1ccccc1Cl)[C@@H](O)C(=O)O)c1cc(F)c(F)c(-c2ccccc2C(=O)O)c1 [Example 3, 5′-[(1R,2R)-2-Carboxy-1-(2-chlorobenzyl)-2-hydroxy-ethylcarbamoyl]-2′,3′-difluoro-biphenyl-2-carb oxylic Acid] |
| ≤ 1 nM | CCc1ccc(C(=O)N[C@H](Cc2ccccc2Cl)[C@@H](O)C(=O)O)cc1-n1c(=O)[nH]c2sc(C)cc2c1=O [Example 4, (2R,3R)-4-(2-Chlorophenyl)-3-[4-ethyl-3-(6-methyl-2,4-dioxo-1,4-dihydro-2H-thieno[2,3-d]pyrimidin-3-yl)-benzoylamino]-2-hydroxy-butyric Acid] |
| 1.26 to 10 nM | O=C(N[C@H](Cc1ccccc1Cl)[C@@H](O)C(=O)O)c1cc(F)cc(-c2ccccc2C(=O)O)c1 [Example 6-1, 5′-[(1R,2R)-2-Carboxy-1-(2-chlorobenzyl)-2-hydroxy-ethylcarbamoyl]-3′-fluoro-biphenyl-2-carboxylic acid] |
| ≤ 1 nM | O=C(N[C@H](Cc1ccccc1Cl)[C@@H](O)C(=O)O)c1cc(Cl)cc(-c2ccccc2C(=O)O)c1 [Example 6-2, 5′-[(1R,2R)-2-Carboxy-1-(2-chlorobenzyl)-2-hydroxy-ethylcarbamoyl]-3′-chloro-biphenyl-2-carboxylic acid] |
| ≤ 1 nM | O=C(N[C@H](Cc1ccccc1Cl)[C@@H](O)C(=O)O)c1ccc(Cl)c(-c2ccccc2C(=O)O)c1 [Example 6-3, 5′-[(1R,2R)-2-Carboxy-1-(2-chlorobenzyl)-2-hydroxy-ethylcarbamoyl]-2′-chloro-biphenyl-2-carboxylic acid] |
| 1.26 to 10 nM | O=C(N[C@H](Cc1ccccc1Cl)[C@@H](O)C(=O)O)c1cc(Cl)c(F)c(-c2ccccc2C(=O)O)c1 [Example 6-4, 5′-[(1R,2R)-2-Carboxy-1-(2-chlorobenzyl)-2-hydroxy-ethylcarbamoyl]-3′-chloro-2′-fluoro-biphenyl-2-carboxylic acid] |
| 12.6 to 100 nM | Cc1ccc(C(=O)N[C@H](Cc2ccccc2Cl)[C@H](O)C(=O)O)cc1-c1ccccc1C(=O)O [Example 6-5, 5′-[(1R,2S)-2-Carboxy-1-(2-chlorobenzyl)-2-hydroxy-ethylcarbamoyl]-2′-methyl-biphenyl-2-carboxylic acid] |
| ≤ 1 nM | Cc1ccc(C(=O)N[C@H](Cc2ccccc2Cl)[C@@H](O)C(=O)O)cc1-c1ccccc1C(=O)O [Example 6-6, 5′-[(1R,2R)-2-Carboxy-1-(2-chlorobenzyl)-2-hydroxy-ethylcarbamoyl]-2′-methyl-biphenyl-2-carboxylic acid] |
| 12.6 to 100 nM | COc1ccc(C(=O)N[C@H](Cc2ccccc2Cl)[C@@H](O)C(=O)O)cc1-c1ccccc1C(=O)O [Example 6-7, 5′-[(1R,2R)-2-Carboxy-1-(2-chlorobenzyl)-2-hydroxy-ethylcarbamoyl]-2′-methoxy-biphenyl-2-carboxylic acid] |
| 1.26 to 10 nM | Cc1cc(C(=O)N[C@H](Cc2ccccc2Cl)[C@@H](O)C(=O)O)ccc1-c1ccccc1C(=O)O [Example 6-8, 4′-[(1R,2R)-2-Carboxy-1-(2-chlorobenzyl)-2-hydroxy-ethylcarbamoyl]-2′-methyl-biphenyl-2-carboxylic acid] |
| 1.26 to 10 nM | O=C(N[C@H](Cc1ccccc1Cl)[C@@H](O)C(=O)O)c1ccc(-c2ccccc2C(=O)O)c(F)c1 [Example 6-9, 4′-[(1R,2R)-2-Carboxy-1-(2-chlorobenzyl)-2-hydroxy-ethylcarbamoyl]-2′-fluoro-biphenyl-2-carboxylic acid] |
| 12.6 to 100 nM | O=C(N[C@H](Cc1ccccc1Cl)[C@@H](O)C(=O)O)c1ccc(N2N=C(C(F)(F)F)CC2=O)cc1 [Example 6-14, (2R,3R)-4-(2-Chlorophenyl)-2-hydroxy-3-[4-(5-oxo-3-trifluoromethyl-4,5-dihydro-pyrazol-1-yl)-benzoylamino]-butyric acid] |
| 1.26 to 10 nM | CC1=NN(c2ccc(C(=O)N[C@H](Cc3ccccc3Cl)[C@H](O)C(=O)O)cc2)C(=O)C1 [Example 6-15, (2S,3R)-4-(2-Chlorophenyl)-2-hydroxy-3-[4-(3-methyl-5-oxo-4,5-dihydro-pyrazol-1-yl)-benzoylamino]-butyric acid] |
| 1.26 to 10 nM | CCc1ccc(C(=O)N[C@H](Cc2ccccc2Cl)[C@@H](O)C(=O)O)cc1N1N=C(C)CC1=O [Example 6-17, (2R,3R)-4-(2-Chlorophenyl)-3-[4-ethyl-3-(3-methyl-5-oxo-4,5-dihydro-pyrazol-1-yl)-benzoylamino]-2-hydroxy-butyric acid] |
| 12.6 to 100 nM | CC1=NN(Cc2ccc(C(=O)N[C@H](Cc3ccccc3Cl)[C@@H](O)C(=O)O)cc2)C(=O)C1 [Example 6-19, (2R,3R)-4-(2-Chlorophenyl)-2-hydroxy-3-[4-(3-methyl-5-oxo-4,5-dihydro-pyrazol-1-ylmethyl)-benzoylamino]-butyric acid] |
| 12.6 to 100 nM | Cc1nn(-c2ccc(C(=O)N[C@H](Cc3ccccc3)[C@@H](O)C(=O)O)cc2)c(C)c1Cl [Example 10-1, (2R,3R)-3-[4-(4-Chloro-3,5-dimethyl-pyrazol-1-yl)-benzoylamino]-2-hydroxy-4-phenyl-butyric acid] |
| 12.6 to 100 nM | O=C(N[C@H](Cc1ccccc1)[C@@H](O)C(=O)O)c1ccc(-n2cccn2)cc1 [Example 10-2, (2R,3R)-2-Hydroxy-4-phenyl-3-(4-pyrazol-1-yl-benzoylamino)-butyric acid] |
| 12.6 to 100 nM | O=C(N[C@H](Cc1ccccc1)[C@@H](O)C(=O)O)c1ccc(-n2ccc(C(F)(F)F)n2)cc1 [Example 10-3, (2R,3R)-2-Hydroxy-4-phenyl-3-[4-(3-trifluoromethyl-pyrazol-1-yl)-benzoylamino]-butyric acid] |
| 12.6 to 100 nM | Cc1cc(C)n(-c2ccc(C(=O)N[C@H](Cc3ccccc3)[C@@H](O)C(=O)O)cc2)n1 [Example 10-4, (2R,3R)-3-[4-(3,5-Dimethyl-pyrazol-1-yl)-benzoylamino]-2-hydroxy-4-phenyl-butyric acid] |
| 12.6 to 100 nM | Cc1cc(C)n(-c2cccc(C(=O)N[C@H](Cc3ccccc3)[C@@H](O)C(=O)O)c2)n1 [Example 10-5, (2R,3R)-3-[3-(3,5-Dimethyl-pyrazol-1-yl)-benzoylamino]-2-hydroxy-4-phenyl-butyric acid] |
| 12.6 to 100 nM | Cc1cc(C)n(-c2cc(C(=O)N[C@H](Cc3ccccc3)[C@@H](O)C(=O)O)ccc2F)n1 [Example 10-6, (2R,3R)-3-[3-(3,5-Dimethylpyrazol-1-yl)-4-fluorobenzoylamino]-2-hydroxy-4-phenyl-butyric acid] |
| 12.6 to 100 nM | Cc1cc(C)n(-c2cc(C(=O)N[C@H](Cc3ccccc3)[C@@H](O)C(=O)O)ccc2C)n1 [Example 10-7, (2R,3R)-3-[3-(3,5-Dimethylpyrazol-1-yl)-4-methylbenzoylamino]-2-hydroxy-4-phenyl-butyric acid] |
| 12.6 to 100 nM | Cc1ccc(C(=O)N[C@H](Cc2ccccc2)[C@@H](O)C(=O)O)cc1-n1ccc(C(=O)O)n1 [Example 10-8, 1-[5-((1R,2R)-1-Benzyl-2-carboxy-2-hydroxyethylcarbamoyl)-2-methyl-phenyl]-1H-pyrazole-3-carboxylic acid] |
| 12.6 to 100 nM | O=C(N[C@H](Cc1ccccc1)[C@@H](O)C(=O)O)c1cccc(-c2ccccc2C(=O)O)c1 [Example 10-9, 3′-((1R,2R)-1-Benzyl-2-carboxy-2-hydroxy-ethylcarbamoyl)-biphenyl-2-carboxylic acid] |
| 12.6 to 100 nM | O=C(N[C@H](Cc1ccccc1)[C@@H](O)C(=O)O)c1cccc(-c2ccc(F)cc2C(=O)O)c1 [Example 10-10, 3′-((1R,2R)-1-Benzyl-2-carboxy-2-hydroxy-ethylcarbamoyl)-4-fluoro-biphenyl-2-carboxylic acid] |
| 12.6 to 100 nM | O=C(N[C@H](Cc1ccccc1)[C@@H](O)C(=O)O)c1cccc(-c2ccc(Cl)cc2C(=O)O)c1 [Example 10-11, 3′-((1R,2R)-1-Benzyl-2-carboxy-2-hydroxy-ethylcarbamoyl)-4-chloro-biphenyl-2-carboxylic acid] |
| 12.6 to 100 nM | O=C(N[C@H](Cc1ccccc1)[C@@H](O)C(=O)O)c1cccc(-c2cc(Cl)ccc2C(=O)O)c1 [Example 10-12, 3′-((1R,2R)-1-Benzyl-2-carboxy-2-hydroxy-ethylcarbamoyl)-5-chloro-biphenyl-2-carboxylic acid] |
| 12.6 to 100 nM | COc1ccc(C(=O)O)c(-c2cccc(C(=O)N[C@H](Cc3ccccc3)[C@@H](O)C(=O)O)c2)c1 [Example 10-13, 3′-((1R,2R)-1-Benzyl-2-carboxy-2-hydroxy-ethylcarbamoyl)-5-methoxy-biphenyl-2-carboxylic acid] |
